Assay results reported in US9290688B2, “Alkaline microbial enhanced oil recovery” (GEO FOSSIL FUELS, LLC, priority 2011, dated 2016).
Numbered stars: 1 amine (or outer) side, 2 acyl side, 3 side chain; on linkers, the order of the positions; unused ones are H or OH. Bridge positions count the residues as written; N and C are the ends. Square brackets hold non-standard residues; d marks the D form. Peptide text beside a SMILES is read from it. X1 = CC(C)CCCCCCCCC[C@H](CC(=O)[*:1])O[*:2]

Legend:
3-ketothiolase I = target: T1, 3-ketothiolase I (Rattus norvegicus, UniProt P13437); conditions: cited from earlier work
T1 sequence (P13437 1-397): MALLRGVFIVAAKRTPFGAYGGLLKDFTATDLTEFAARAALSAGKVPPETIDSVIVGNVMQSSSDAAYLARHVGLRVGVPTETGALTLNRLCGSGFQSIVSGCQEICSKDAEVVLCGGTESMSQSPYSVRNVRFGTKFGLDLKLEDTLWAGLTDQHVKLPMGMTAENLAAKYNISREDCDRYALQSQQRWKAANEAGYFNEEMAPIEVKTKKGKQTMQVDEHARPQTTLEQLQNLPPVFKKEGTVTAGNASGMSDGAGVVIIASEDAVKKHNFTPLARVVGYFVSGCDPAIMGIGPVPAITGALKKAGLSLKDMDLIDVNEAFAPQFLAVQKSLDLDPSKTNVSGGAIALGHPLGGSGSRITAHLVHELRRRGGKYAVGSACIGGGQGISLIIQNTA

[1] = tested on: Rhodococcus rhodochrous ATCC #53968; assay: Digestion of Red River crude oil with and without beta-oxidation inhibitors; GC of methyl esters of extracted organic acids; assay type: cell-based; conditions: for Total GC (all peaks integrated by the GC integrator): 0.31 g oil sample; for conv. To umoles FA: approximately 1.0 micromoles per 100 area units; for Cal. AN (calculated acid number): estimated from GC areas
Procedure: (§1) An oil degrading microorganism was used to evaluate the use of chemical inhibitors to slow the utilization of hydrocarbons in petroleum. In a non-limiting example, three different chemical compounds that have been reported to inhibit beta-oxidation were tested in oil and culture medium on a petroleum sample with a strain of Rhodococcus rhodochrous ATCC #53968 in m9 minimal medium. To test the ability of each chemical inhibitor to slow the consumption of fatty acids a culture of bacteria was grown on a crude oil sample for a period of three days with crude petroleum oil as the only carbon source. Four separate flasks were set up, each with an oil to aqueous media ratio of 1 to 5 (10 ml of crude oil to 50 ml of culture medium). Each of the three chemical inhibitors was added to a separate flask and a fourth flask was allowed to digest without the addition of a chemical inhibitor as a control. The flasks were shaken at a room temperature of about 25° C. under aerobic conditions. The progress of the microbial digestion was monitored by the optical density at 600 nm and by visual inspection of the brown oil color in the aqueous phase. Three days after the addition of inhibitors, or a total of six days of incubation with oil, a small sample of oil (0.31 g) was removed. A second sample of the same size was remover after another 6 days. The organic acids were extracted from each oil sample with 1% NaOH in 70% ethanol. The samples were shaken vigorously for one minute. The aqueous extract material was then extracted with hexane to remove any trace of oil. The samples of extracted organic acids were then dried under vacuum and converted to methyl esters with BF3 in methanol.
The mixtures of methyl esters were analyzed by GC (gas chromatography) using a HP (Hewlett Packard) 5890 GC with an Agilent Technologies capillary column, HP-5 (crosslinked 5% PH) ME Siloxane 0.25 micrometer coating with a length of 30 meter and a column ID (internal diameter) of 0.32 mm. Helium was used as a carrier gas. Detection was by a FID detector and integration of peak areas was done with a HP 3396 integrator. The temperature program held an initial temperature of 40° C. for 1.0 minutes then increased at 15 degrees per minute to 280° C., and finally held at a temperature of 280° C. for 5 minutes. To quantify the amount of organic acids extracted by this procedure, a stock solution of 2-bromooctanoate and 2-bromohexadecanoate were added to a sample of undigested Red River crude petroleum oil and then extracted by the same procedure as the bio-digested oil samples. The average area for theses two organic acids was used to estimate the amount of organic acids in micromoles per area unit determined by the GC integrator. The number was calculated to be approximately 1.0 micromoles per 100 area units. The area units for each of the GC peaks are list in Table 2. This number was used to estimate the micromoles organic acids extracted from the oil. This estimate was used to calculate the number of mg of KOH that equaled the number of micromoles of organic acid estimated. This number is listed on the last row in Table 2 as the calculated AN (acid number) for each digestion experiment. These estimated numbers are only based on organic acids that are hydrophobic enough to stay in the oil phase and not move into the aqueous phase. Organic acids measured include the carboxylic acids made by the bacteria and that have been secreted out of the cell and have migrated back to the oil phase. They are also hydrocarbons that are small enough to be extracted into the ethanol aqueous extraction solvent. This number is likely to be less than the total acid number (TAN), a measure often used to evaluate crude petroleum for amenability to alkaline waterflooding.
The earlier eluting peaks are believed to represent methyl ester of lighter hydrocarbon carboxylic acids and the later eluting peaks are believed to represent methyl ester of the heavier organic acids. […]

[2] = tested on: Rhodococcus rhodochrous ATCC #53968; assay: Growth of bacteria on crude oil with inhibitors, optical density at 600 nm; assay type: cell-based
Procedure: as §1
Digestion with the bacteria increases the total amount of carboxylic acids in all the samples. The digestions with the chemical beta-oxidation inhibitors produce about the same or a little more total methyl ester peaks than the bacterial digestion without an inhibitor. […] The later eluting peaks increase at a faster rate with the inhibitors than without. For example, the 12 day sample with no inhibitor increase from 5.9 to 45.9 area units for peaks up to 13 minutes. The sample with the acrylic acid inhibitor has an increase of from 5.9 to 43.7 area units, which is less than without inhibitor. The later eluting peaks increase from 3.6 to 14.3 without the inhibitor, but with acrylic acid the later peak areas increase to 22.5 area units. […] After 6 days of digestion the optical density had reached 2.23 for the uninhibited digestion as compared to 0.49 for the acrylic acid inhibited sample and 1.84 for the 2-bromooctanoic acid and 2.4 for the 2-bromohexadeconoic acid. After 12 days of digestion the uninhibited sample had reached 4.0 and the acrylic acid had increased to 1.7 and 2.2 and 2.4 for the other two inhibitors. Therefore, by this experimental analysis one can determine which inhibitors increase the carboxylic acid content or the acid number of the oil fastest with the least amount of oil consumption. The oil consumption can be determined by quantitation of remaining oil or by growth of bacteria were oil is the only carbon source. It appears that all the inhibitors helped reduce the utilization of fatty acids and the consumption of oil while producing an increase in acid number.

[3] = tested on: Rhodococcus rhodochrous ATCC #53968; assay: End of digestion: oil and aqueous volumes, acid number by alcoholic alkaline extraction and back titration; assay type: cell-based; conditions: one ml of oil, alcoholic alkaline extraction, back titration; acrylic acid value per gram of oil emulsion
Procedure: as §1, with “The samples were shaken vigorously for one minute. The aqueous extract material was then extracted with hexane to remove any trace of oil. The samples of extracted organic acids were then dried under vacuum and converted to methyl esters with BF3 in methanol.” left out
At the end of the experiment the oil and water were separated and the volume determined. […] This would have under reported the amount of methyl esters determined by GC analysis. The amount of aqueous phase was determined to be 22.5 ml for the acrylic acid sample and 46 ml, 48 ml and 47.5 ml for the others. […] The calculated acid number for the uninhibited digestion was 5 mg of KOH per gram. The other two inhibited digestions were analyzed to be 4.5 mg for the 2-bromooctanoic acid and 6.5 for the 2-bromohexadecanoic acid inhibited digestion. The undigested oil was determined to have an acid number of 6.5 mg of KOH by analysis of a one gram sample and a 10 gram sample. […]

3-ketoacyl-CoA thiolase = conditions: cited from earlier work
[4] = 100, pH 10
Procedure: Production of rhamnolipid biosurfactant was tested in engineered strains using the oil spreading assay (Fang et al DOE report 2007). Cells were grown three days at 30° C. in YCA-10 medium (per liter: 25 g NaCl, 5 g yeast extract, 5 g casamino Acids, 5 g Na2CO3, 1 g sodium glutamate, 1 g NH4Cl, 1 g KH2PO4, 1 g KCl, 200 mg MgSO4.7H2O, 36 mg FeCl2.4H2O, 0.36 mg MnCl.4H2O, adjusted to pH10.0 with KOH) containing 5 μg/ml chloramphenicol. For oil spreading assays, 50 mls of distilled water was dispensed into a 15 cm petri dish and 50 μl of petroleum oil was added to the surface of the water. A 10 μl drop of medium or culture suspension was added to the surface of the oil, and the diameter of the clear zone (if any) was measured after 2 minutes.

CCCCCCC(Br)C(=O)O (racemic) [DL-2-bromooctanoate]
effect on 3-ketothiolase I (3-ketothiolase I): complete and irreversible inactivation

CCCCCCCCCCCCCCC(Br)C(=O)O (stereo not shown) [Br C16, 2-bromohexadecanoic acid]
GC peak area, retention time 4.5 ([1]; 6 days): 0.226 area units | GC peak area, retention time 5.6 ([1]; 6 days): 1.099 area units | GC peak area, retention time 6.6 ([1]; 6 days): 3.049 area units | GC peak area, retention time 7.6 ([1]; 6 days): 2.553 area units | GC peak area, retention time 8.2 ([1]; 6 days): 0.705 area units | GC peak area, retention time 8.5 ([1]; 6 days): 1.395 area units | GC peak area, retention time 9.4 ([1]; 6 days): 1.131 area units | GC peak area, retention time 10.2 ([1]; 6 days): 1.11 area units | GC peak area, retention time 11 ([1]; 6 days): 4.105 area units | GC peak area, retention time 11.5 ([1]; 6 days): 2.76 area units | GC peak area, retention time 12.5 ([1]; 6 days): 4.8 area units | GC peak area, retention time 13.2 ([1]; 6 days): 1.26 area units | GC peak area, retention time 13.6 ([1]; 6 days): 1.997 area units | GC peak area, retention time 13.8 ([1]; 6 days): 3.211 area units | SubTotal peak area, later peaks eluting after 13 minutes ([1]; 6 days): 6.468 area units | SubTotal peak area, peaks eluting before 13 minutes ([1]; 6 days): 22.933 area units | Total GC area For 1 ml ([1]; 6 days): 1385 | Total of all selected peaks ([1]; 6 days): 29.401 area units | Total GC (all peaks integrated by the GC integrator) ([1]; 6 days): 429.5 area units | conv. To umoles FA ([1]; 6 days): 13.85 µmol | Cal. AN (calculated acid number) ([1]; 6 days): 0.78 mg of KOH | GC peak area, retention time 4.2 ([1]; 12 days): 0.354 area units | GC peak area, retention time 4.5 ([1]; 12 days): 0.237 area units | GC peak area, retention time 5.6 ([1]; 12 days): 0.624 area units | GC peak area, retention time 6.6 ([1]; 12 days): 1.498 area units | GC peak area, retention time 7.6 ([1]; 12 days): 1.246 area units | GC peak area, retention time 8.2 ([1]; 12 days): 0.602 area units | GC peak area, retention time 8.5 ([1]; 12 days): 0.624 area units | GC peak area, retention time 9.4 ([1]; 12 days): 0.476 area units | GC peak area, retention time 10.2 ([1]; 12 days): 0.475 area units | GC peak area, retention time 11 ([1]; 12 days): 1.663 area units | GC peak area, retention time 11.5 ([1]; 12 days): 3.922 area units | GC peak area, retention time 12.3 ([1]; 12 days): 3.095 area units | GC peak area, retention time 13 ([1]; 12 days): 2.495 area units | GC peak area, retention time 13.2 ([1]; 12 days): 3.584 area units | GC peak area, retention time 13.4 ([1]; 12 days): 3.088 area units | GC peak area, retention time 13.6 ([1]; 12 days): 2.779 area units | GC peak area, retention time 13.8 ([1]; 12 days): 4.626 area units | GC peak area, retention time 14.2 ([1]; 12 days): 0.762 area units | SubTotal peak area, later peaks eluting after 13 minutes ([1]; 12 days): 17.334 area units | SubTotal peak area, peaks eluting before 13 minutes ([1]; 12 days): 14.816 area units | Total GC area For 1 ml ([1]; 12 days): 828 | Total of all selected peaks ([1]; 12 days): 32.15 area units | Total GC (all peaks integrated by the GC integrator) ([1]; 12 days): 256.8 area units | conv. To umoles FA ([1]; 12 days): 8.28 µmol | Cal. AN (calculated acid number) ([1]; 12 days): 0.46 mg of KOH | optical density ([2]; after 6 days of digestion, crude oil only carbon source): 2.4 | optical density ([2]; after 12 days of digestion): 2.4 | final analysis acid number [3]: 6.5 mg KOH per gram

O=C(O)c1ccccc1O [Salicylic acid]
effect on 3-ketoacyl-CoA thiolase in P. fluorescens (3-ketoacyl-CoA thiolase): inhibit

CC(C)CCCCCCCCC[C@@H]1CC(=O)N[C@@H](CCC(=O)O)C(=O)N[C@@H](CC(C)C)C(=O)N[C@H](CC(C)C)C(=O)N[C@@H](C(C)C)C(=O)N[C@@H](CC(=O)O)C(=O)N[C@H](CC(C)C)C(=O)N[C@@H](CC(C)C)C(=O)O1 [Surfactin (purified)] (EL[dL]VD[dL]L; linker N-C via X1)
Clear zone diameter [4]: 13 mm
